Laboratory results: BindingDB's records for doi:10.1124/jpet.104.081224 (German Cancer Research Center, 2005)

Experiments:
[1] = biological target: T1, Solute carrier organic anion transporter family member 1B3 (Homo sapiens, UniProt Q9NPD5)
T1 sequence (Q9NPD5 whole entry): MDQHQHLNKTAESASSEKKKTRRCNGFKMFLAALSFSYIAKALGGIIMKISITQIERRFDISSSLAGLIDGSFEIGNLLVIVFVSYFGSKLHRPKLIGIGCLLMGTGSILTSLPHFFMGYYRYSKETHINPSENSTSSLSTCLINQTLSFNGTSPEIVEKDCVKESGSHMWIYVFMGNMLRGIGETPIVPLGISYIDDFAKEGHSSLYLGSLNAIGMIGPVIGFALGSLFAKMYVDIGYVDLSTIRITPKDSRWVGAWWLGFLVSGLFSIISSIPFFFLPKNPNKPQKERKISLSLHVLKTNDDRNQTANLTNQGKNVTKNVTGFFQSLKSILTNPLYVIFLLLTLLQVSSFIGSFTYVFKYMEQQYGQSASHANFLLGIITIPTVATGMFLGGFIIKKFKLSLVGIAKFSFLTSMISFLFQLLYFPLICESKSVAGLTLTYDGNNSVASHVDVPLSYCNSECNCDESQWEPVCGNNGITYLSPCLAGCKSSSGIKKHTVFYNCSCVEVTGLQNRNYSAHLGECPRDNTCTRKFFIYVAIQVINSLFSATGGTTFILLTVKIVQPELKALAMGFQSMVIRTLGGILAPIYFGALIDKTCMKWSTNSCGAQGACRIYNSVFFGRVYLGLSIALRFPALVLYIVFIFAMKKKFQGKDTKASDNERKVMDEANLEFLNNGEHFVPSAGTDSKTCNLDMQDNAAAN

[2] = biological target: ATP-binding cassette sub-family C member 2 (Homo sapiens, UniProt Q92887)
Chain of ATP-binding cassette sub-family C member 2 (Q92887 whole entry): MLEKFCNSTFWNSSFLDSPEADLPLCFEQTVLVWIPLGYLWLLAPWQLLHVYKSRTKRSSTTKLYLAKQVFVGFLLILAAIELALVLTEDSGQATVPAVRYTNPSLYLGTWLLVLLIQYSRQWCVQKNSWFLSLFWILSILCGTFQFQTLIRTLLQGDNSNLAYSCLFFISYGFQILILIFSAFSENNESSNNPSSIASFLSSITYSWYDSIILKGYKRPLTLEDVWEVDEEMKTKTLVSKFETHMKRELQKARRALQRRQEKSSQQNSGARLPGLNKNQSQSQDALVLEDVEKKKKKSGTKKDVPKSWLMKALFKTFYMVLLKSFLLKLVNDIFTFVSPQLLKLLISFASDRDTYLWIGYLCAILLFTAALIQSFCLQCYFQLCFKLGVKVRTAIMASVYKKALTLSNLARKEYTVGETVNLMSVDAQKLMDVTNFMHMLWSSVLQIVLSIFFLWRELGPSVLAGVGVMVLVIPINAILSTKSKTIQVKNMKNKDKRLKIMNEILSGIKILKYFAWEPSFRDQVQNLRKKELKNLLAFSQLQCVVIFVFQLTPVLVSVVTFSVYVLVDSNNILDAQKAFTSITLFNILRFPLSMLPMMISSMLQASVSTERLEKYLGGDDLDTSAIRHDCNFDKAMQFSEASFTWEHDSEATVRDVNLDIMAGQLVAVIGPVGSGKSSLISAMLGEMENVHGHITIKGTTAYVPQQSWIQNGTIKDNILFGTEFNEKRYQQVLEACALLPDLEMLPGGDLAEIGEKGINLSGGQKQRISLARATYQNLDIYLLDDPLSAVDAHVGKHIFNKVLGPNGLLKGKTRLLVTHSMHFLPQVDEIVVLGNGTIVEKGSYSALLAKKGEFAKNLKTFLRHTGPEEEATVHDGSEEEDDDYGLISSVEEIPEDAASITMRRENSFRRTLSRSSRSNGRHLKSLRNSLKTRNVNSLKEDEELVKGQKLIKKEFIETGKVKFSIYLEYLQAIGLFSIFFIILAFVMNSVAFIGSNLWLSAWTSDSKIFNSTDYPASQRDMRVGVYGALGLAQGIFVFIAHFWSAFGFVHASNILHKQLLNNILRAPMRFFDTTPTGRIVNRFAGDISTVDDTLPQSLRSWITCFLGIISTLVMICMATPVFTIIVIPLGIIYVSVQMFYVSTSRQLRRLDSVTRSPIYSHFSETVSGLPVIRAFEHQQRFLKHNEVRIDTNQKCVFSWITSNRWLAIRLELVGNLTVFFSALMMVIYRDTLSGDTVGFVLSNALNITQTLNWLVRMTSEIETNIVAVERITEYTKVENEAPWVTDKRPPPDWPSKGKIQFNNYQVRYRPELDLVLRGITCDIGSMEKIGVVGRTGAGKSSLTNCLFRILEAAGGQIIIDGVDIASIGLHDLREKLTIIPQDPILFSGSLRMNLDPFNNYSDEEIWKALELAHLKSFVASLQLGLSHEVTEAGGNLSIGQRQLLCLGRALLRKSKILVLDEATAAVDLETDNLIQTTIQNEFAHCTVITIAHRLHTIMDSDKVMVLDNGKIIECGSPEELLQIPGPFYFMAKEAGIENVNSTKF

CN(C)C(=O)CCSC(SCCC(=O)O)c1cccc(C=Cc2ccc3ccc(Cl)cc3n2)c1 (configuration not stated) [NSC_60719]
Ki [1]: 0.6 µM
Ki [2]: 8.5 µM
